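These data come from cells grown in 96-well plates and exposed to compound for 48 hours at five concentrations. GI50 is the concentration that inhibits growth by half.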 Active and inactive are the calls of the source. No stated cut-off is given here; in the data, active = GI50 up to about 1.1 µM and inactive = higher. *1 amine or outer side, *2 acyl side, *3 side chain or, on linkers, in order; H or OH if unused. Where a SMILES comes first, the peptide text is derived from it. [ ]: non-standard residue; d: D form. The star is where a group is joined. ξ: configuration not given here. X26 = O=C([C@H]1CCC[C@H]1N[*:1])[*:2]; ξW = NC(Cc1c[nH]c2ccccc12)C(=O)O; ξF = NC(Cc1ccccc1)C(=O)O; Boc = CC(C)(C)OC(=O)*; ξK = NCCCCC(N)C(=O)O; ξT = CC(O)C(N)C(=O)O; tBu = CC(C)(C)*
Tests used:
Assay in all cases: NCI tumour cell line growth inhibition, 48 h
RXF 393 = test system: RXF 393
OVCAR-4 = test system: OVCAR-4
RPMI-8226 = test system: RPMI-8226
MDA-MB-231 = test system: MDA-MB-231
SW-620 = test system: SW-620
OVCAR-3 = test system: OVCAR-3
IGROV-1 = test system: IGROV-1
SK-OV-3 = test system: SK-OV-3
HOP-92 = test system: HOP-92
Hs-578T = test system: Hs-578T
SF-268 = test system: SF-268
MDA-N = test system: MDA-N
HT-29 = test system: HT-29
Malme-3M = test system: Malme-3M
MDA-MB-435 = test system: MDA-MB-435
NCI/ADR-RES = test system: NCI/ADR-RES
SK-MEL-2 = test system: SK-MEL-2
HOP-62 = test system: HOP-62
SN12C = test system: SN12C
MCF7 = test system: MCF7

| SMILES | GI50 (RXF 393) | GI50 (OVCAR-4) | GI50 (RPMI-8226) | GI50 (MDA-MB-231) | GI50 (SW-620) | GI50 (OVCAR-3) | GI50 (IGROV-1) | GI50 (SK-OV-3) | GI50 (HOP-92) | GI50 (Hs-578T) | GI50 (SF-268) | GI50 (MDA-N) | GI50 (HT-29) | GI50 (Malme-3M) | GI50 (MDA-MB-435) | GI50 (NCI/ADR-RES) | GI50 (SK-MEL-2) | GI50 (HOP-62) | GI50 (SN12C) | GI50 (MCF7) |
| --- | --- | --- | --- | --- | --- | --- | --- | --- | --- | --- | --- | --- | --- | --- | --- | --- | --- | --- | --- | --- |
| CC1=NN(C(=O)CC(=O)Nc2ccccc2Cl)C(=O)C1/N=N\c1ccc(S(=O)(=O)c2ccc(/N=N/C3C(=O)N(C(=O)CC(=O)Nc4ccccc4Cl)N=C3C)cc2)cc1 (stereo not given) | > 100 µM (inactive) | > 100 µM (inactive) | > 100 µM (inactive) | 30.5 µM (inactive) | > 100 µM (inactive) | > 100 µM (inactive) | > 100 µM (inactive) | > 100 µM (inactive) | > 100 µM (inactive) | > 100 µM (inactive) | > 100 µM (inactive) | > 100 µM (inactive) | > 100 µM (inactive) | > 100 µM (inactive) | > 100 µM (inactive) | > 100 µM (inactive) | > 100 µM (inactive) | > 100 µM (inactive) | > 100 µM (inactive) | > 100 µM (inactive) |
| OC/C=C/[C@H](OCc1ccccc1)[C@H](/C=C/CO)OCc1ccccc1 | 9.06 µM (inactive) | 29.8 µM (inactive) | 23.1 µM (inactive) | 50.4 µM (inactive) | 39.9 µM (inactive) | 39.7 µM (inactive) | 42.5 µM (inactive) | > 100 µM (inactive) | 45.4 µM (inactive) | 47.4 µM (inactive) | 40.2 µM (inactive) | 36 µM (inactive) | 24.3 µM (inactive) | > 100 µM (inactive) | 40.1 µM (inactive) | 32.4 µM (inactive) | 37.4 µM (inactive) | 49.7 µM (inactive) | 47.8 µM (inactive) | 33.1 µM (inactive) |
| CC(C)(C)c1ccc2c(c1)OCc1n[nH]c(n1)COc1cc(C(C)(C)C)ccc1OCCOCCO2 | 1.62 µM (inactive) | 0.248 µM (active) | 2.99 µM (inactive) | 9.48 µM (inactive) | 3.16 µM (inactive) | 2.53 µM (inactive) | 5.69 µM (inactive) | 3.77 µM (inactive) | 3.88 µM (inactive) | 2.26 µM (inactive) | 4.37 µM (inactive) | 3.11 µM (inactive) | 3.01 µM (inactive) | 2.07 µM (inactive) | 3.21 µM (inactive) | 3.41 µM (inactive) | 1.81 µM (inactive) | 5.62 µM (inactive) | 4.55 µM (inactive) | 3.31 µM (inactive) |
| COc1ccc2c3c([nH]c2c1)[C@H]1C[C@H]2[C@H](C[C@@H](O)[C@H](OC)[C@H]2C(=O)O)CN1CC3 | > 100 µM (inactive) | > 100 µM (inactive) | > 100 µM (inactive) | > 100 µM (inactive) | > 100 µM (inactive) | > 100 µM (inactive) | > 100 µM (inactive) | > 100 µM (inactive) | > 100 µM (inactive) | 62.8 µM (inactive) | > 100 µM (inactive) | > 100 µM (inactive) | > 100 µM (inactive) | > 100 µM (inactive) | > 100 µM (inactive) | > 100 µM (inactive) | > 100 µM (inactive) | > 100 µM (inactive) | > 100 µM (inactive) | > 100 µM (inactive) |
| CC(=O)Oc1c(OC(C)C)cc(=O)n2ccsc12 | > 100 µM (inactive) | > 100 µM (inactive) | 29.4 µM (inactive) | > 100 µM (inactive) | 82 µM (inactive) | 78.2 µM (inactive) | 92.7 µM (inactive) | > 100 µM (inactive) | > 100 µM (inactive) | > 100 µM (inactive) | > 100 µM (inactive) | > 100 µM (inactive) | > 100 µM (inactive) | > 100 µM (inactive) | 17.3 µM (inactive) | > 100 µM (inactive) | > 100 µM (inactive) | > 100 µM (inactive) | > 100 µM (inactive) | 52.6 µM (inactive) |
| O=C1c2ccccc2S(=O)(=O)c2ccccc21 | > 100 µM (inactive) | > 100 µM (inactive) | > 100 µM (inactive) | > 100 µM (inactive) | > 100 µM (inactive) | > 100 µM (inactive) | > 100 µM (inactive) | > 100 µM (inactive) | > 100 µM (inactive) | 72.1 µM (inactive) | > 100 µM (inactive) | > 100 µM (inactive) | > 100 µM (inactive) | > 100 µM (inactive) | > 100 µM (inactive) | > 100 µM (inactive) | > 100 µM (inactive) | > 100 µM (inactive) | > 100 µM (inactive) | > 100 µM (inactive) |
| N#Cc1cccc(C2ON=C(c3ccc([N+](=O)[O-])cc3)N2C23CC4CC(CC(C4)C2)C3)c1 (stereo not given) | 13.1 µM (inactive) | 26.9 µM (inactive) | > 100 µM (inactive) | 63.7 µM (inactive) | > 100 µM (inactive) | 39.3 µM (inactive) | > 100 µM (inactive) | > 100 µM (inactive) | 69.2 µM (inactive) | 39.8 µM (inactive) | > 100 µM (inactive) | > 100 µM (inactive) | > 100 µM (inactive) | 59.7 µM (inactive) | > 100 µM (inactive) | > 100 µM (inactive) | 16.7 µM (inactive) | > 100 µM (inactive) | > 100 µM (inactive) | 34.4 µM (inactive) |
| COc1ccc(/C(CC2OC(=O)c3ccccc32)=N\NC(=O)C[N+](C)(C)C)cc1 (stereo not given) | 25.4 µM (inactive) | 22.6 µM (inactive) | 15.2 µM (inactive) | 57.3 µM (inactive) | 25.5 µM (inactive) | 30.3 µM (inactive) | 34.4 µM (inactive) | 38.8 µM (inactive) | 23.1 µM (inactive) | 36.7 µM (inactive) | 30.5 µM (inactive) | 38.2 µM (inactive) | 19.2 µM (inactive) | 31.1 µM (inactive) | 24.3 µM (inactive) | 21.2 µM (inactive) | 23.9 µM (inactive) | 19.2 µM (inactive) | 34.7 µM (inactive) | 42 µM (inactive) |
| CCN(C(=O)N[C@@H](C)C(=O)N[C@@H](Cc1ccccc1)C(=O)OC)c1ccccc1 | > 100 µM (inactive) | 68.4 µM (inactive) | 38.5 µM (inactive) | > 100 µM (inactive) | > 100 µM (inactive) | 54.2 µM (inactive) | 44.7 µM (inactive) | > 100 µM (inactive) | 19.4 µM (inactive) | 70.6 µM (inactive) | > 100 µM (inactive) | > 100 µM (inactive) | > 100 µM (inactive) | 34.4 µM (inactive) | > 100 µM (inactive) | > 100 µM (inactive) | 28.6 µM (inactive) | > 100 µM (inactive) | 23 µM (inactive) | > 100 µM (inactive) |
| CN(C)CCNc1ccc2c(=O)n(CCN(C)C)c(=O)n3c4ccccc4c(=O)c1c23 | 0.109 µM (active) | 0.27 µM (active) | 0.0182 µM (active) | 0.114 µM (active) | < 0.0208 µM (active) | 0.218 µM (active) | 0.0404 µM (active) | < 0.0392 µM (active) | 0.0516 µM (active) | 0.305 µM (active) | 0.0512 µM (active) | 0.133 µM (active) | 0.0502 µM (active) | 0.18 µM (active) | 0.145 µM (active) | 0.14 µM (active) | 0.399 µM (active) | 0.0185 µM (active) | 0.0198 µM (active) | < 0.0174 µM (active) |
| CC(OC(C)(C)C)C1NC(=O)C(CCCCNC(=O)OC(C)(C)C)NC(=O)C(Cc2c[nH]c3ccccc23)NC(=O)C(Cc2ccccc2)NC(=O)[C@H]2CCC[C@H]2NC(=O)C(Cc2ccccc2)NC1=O (stereo not given in full) (cyclo([X26][ξF][ξW][ξK](Boc)[ξT](tBu)[ξF])) | > 100 µM (inactive) | > 100 µM (inactive) | 8.71 µM (inactive) | 31.8 µM (inactive) | > 100 µM (inactive) | > 100 µM (inactive) | 50.4 µM (inactive) | 48 µM (inactive) | > 100 µM (inactive) | 2.67 µM (inactive) | > 100 µM (inactive) | 56.2 µM (inactive) | 11.4 µM (inactive) | > 100 µM (inactive) | 29.9 µM (inactive) | > 100 µM (inactive) | 26.1 µM (inactive) | > 100 µM (inactive) | 17.2 µM (inactive) | 11.6 µM (inactive) |
| CC(Oc1ccccc1)C(=O)NNC(=O)OC(C)(C)C (stereo not given) | > 100 µM (inactive) | > 100 µM (inactive) | > 100 µM (inactive) | > 100 µM (inactive) | > 100 µM (inactive) | > 100 µM (inactive) | > 100 µM (inactive) | > 100 µM (inactive) | > 100 µM (inactive) | > 100 µM (inactive) | > 100 µM (inactive) | > 100 µM (inactive) | > 100 µM (inactive) | > 100 µM (inactive) | > 100 µM (inactive) | > 100 µM (inactive) | > 100 µM (inactive) | > 100 µM (inactive) | > 100 µM (inactive) | > 100 µM (inactive) |
| CC(C)[Si]1(C(C)C)OCC2OC(N3C(=O)NC(=O)C[C@@H]3C(O)c3ccccc3)CC2O[Si](C(C)C)(C(C)C)O1 (stereo not given in full) | 5.27 µM (inactive) | 4.51 µM (inactive) | 4.31 µM (inactive) | 5.86 µM (inactive) | 3.4 µM (inactive) | 4.83 µM (inactive) | 4.74 µM (inactive) | 5.71 µM (inactive) | 7.26 µM (inactive) | 3.3 µM (inactive) | 4.14 µM (inactive) | 4.3 µM (inactive) | 2.48 µM (inactive) | 5.41 µM (inactive) | 5.5 µM (inactive) | 5.32 µM (inactive) | 13.4 µM (inactive) | 11.9 µM (inactive) | 3.86 µM (inactive) | 3.92 µM (inactive) |
